In paper PMC9590610 (Chemical biology & drug design, 2020) one finds IC50 and Kd data, which are given here for three molecules.

Assay [1] has as its target FAK (focal adhesion kinase) FERM domain (Homo sapiens, UniProt Q05397). It counts as binding.
The target of assay [2] is Recombinant HER2-ICD (Intracellular Domain) (human, UniProt P04626 676-1255).

Broadly, the IC50 is the concentration that inhibits the measured activity by half. Lower therefore signals higher potency. For orientation: Kd means the equilibrium constant for the complex coming apart.

In assay [1], `Cc1nc(SC(C)C(=O)Nc2ccc3[nH]c(=O)[nH]c3c2)n(C2CCCC2)c1C` (racemic) [VS4, (rac)-2-((1-cyclopentyl-4,5-dimethyl-1H-imidazol-2-yl)thio)-N-(2-oxo-2,3-dihydro-1H-benzo[d]imidazol-5-yl)propanamide] returned a 50% inhibitory concentration (IC50) of 170 nM.

With `CC(Oc1ccc(C(=O)NCCN2CCN(C)CC2c2ccccc2)cn1)c1ccccc1` (racemic) [VS14, (rac)-N-(2-(4-methyl-2-phenylpiperazin-1-yl)ethyl)-6-(1-phenylethoxy)nicotinamide], in assay [1], half-maximal inhibition (IC50) was put at 187 nM. The IC50 values of the last two molecules are within 1.5-fold of each other.

B1: GST-FAK-NT (FERM) (domain or fragment, UniProt Q05397 35-355, looked up)
chain: RVLKVFHYFESNSEPTTWASIIRHGDATDVRGIIQKIVDSHKVKHVACYGFRLSHLRSEEVHWLHVDMGVSSVREKYELAHPPEEWKYELRIRYLPKGFLNQFTEDKPTLNFFYQQVKSDYMLEIADQVDQEIALKLGCLEIRRSYWEMRGNALEKKSNYEVLEKDVGLKRFFPKSLLDSVKAKTLRKLIQQTFRQFANLNREESILKFFEILSPVYRFDKECFKCALGSSWIISVELAIGPEEGISYLTDKGCNPTHLADFTQVQTIQYSNSEDKDRKGMLQLKIAGAPEPLTVTAPSLTIAENMADLIDGYCRLVNGTS
Regarding B1, in assay [2], the Kd is 571 nM.
